Source: patent publication US6313177A, “D-mannitol derivatives as HIV aspartyl protease inhibitors” (Pharmacor Inc., priority 1999, dated 2001)

biological target: T1, recombinant HIV-1 protease (Human immunodeficiency virus type 1 group M subtype B, UniProt P04585); test: Fluorometric (FRET) enzymatic assay for the inhibition constant (Ki) against the HIV protease; type: biochemical; conditions: not given
T1 construct: recombinant HIV-1 protease; purchased Bachem Bioscience
Excerpt: Enzymatic Assay for Determining the Inhibition Constant (Ki) of Synthetic Compounds Prepared Against the HIV Protease
This is a fluorometric assay based on the cleavage by protease of a substrate carrying a donor group (EDANS, excitation at 340 nm and emission at 490 nm) and an acceptor group (DABCYL) on each side of the cleavage site, interacting together through fluorescence resonance energy transfer (FRET). Cleavage of the substrate by protease stops energy exchange between the two groups, resulting in a time-dependent increase in fluorescence intensity that is linearly related to the extent of substrate hydrolysis.
The enzymatic assay is done at 30° C. in a spectrophotometer microcuvet, in a total volume of 400 μL. The apparatus used for readings is a UV-visible Cary 1 spectrophotometer made by Varian. The reaction is run first in the absence of protease inhibitors for 2 min, using 355 μL of buffer at pH 4.7 (sodium acetate 100 mM, NaCl 1 M, EDTA 1 mM, DTT 1 mM, dimethylsulfoxide 10%, and BSA 1 mg/mL), 40 μL of substrate H-2930 from Molecular Probes (final concentration 10 μM) and 5 μL of recombinant HIV-1 protease (final concentration 18.3 nM) purchased from Bachem Bioscience. Fluorescence readings at […] are taken continuously during the reaction, allowing determination of the enzyme's initial velocity (v0). At the end of the 2 min incubation, the potential inhibitor at a defined concentration in a volume of 2 μL is added to the reaction, and fluorescence readings are taken for another 2 min, allowing determination of enzyme velocity (vi) in the presence of the inhibitory compound. Several concentrations of the putative inhibitors are tested in the assay. After calculation of vo and vi, the inhibition constant (Ki) of the compound is determined using the equation of Henderson: [formula]
and [I]=inhibitor concentration, [S ]=substrate concentration, Km=Michaelis-Menten constant, Kiapp =apparent Ki
Note that the Michaelis-Menten constant of HIV protease is determined by running the assay without inhibitors, using several concentrations of substrate, and plotting the results as a Cornish-Bowden graph with the ratio substrate concentration/velocity as the ordinate and substrate concentration as the abscissa.

First: OCc1ccc(CO[C@H](COCc2ccccc2)[C@@H](O)[C@H](O)[C@@H](COCc2ccccc2)OCc2ccc(CO)cc2)cc1 [Compound 45, 1,6-di-O-benzyl-2,5-di-O-(4-hydroxymethylbenzyl)-D-mannitol]
Second: O[C@@H]([C@H](O)[C@@H](COCc1ccccc1)OCc1ccccc1F)[C@@H](COCc1ccccc1)OCc1ccccc1F [Compound 21, 1,6-di-O-benzyl-2,5-di-O-(2-fluorobenzyl)-D-mannitol]
The Ki of the first is 2.7-fold higher: 10 µM for the first, 3.7 µM for the second. The second binds more tightly here.

Compared with `O[C@@H]([C@H](O)[C@@H](COCc1c(F)cccc1F)OCc1ccc(F)cc1)[C@@H](COCc1c(F)cccc1F)OCc1ccc(F)cc1` [Compound 39, 1,6-di-O-(2,6-difluorobenzyl)-2,5-di-O-(4-fluorobenzyl)-D-mannitol], `O[C@@H]([C@H](O)[C@@H](COCc1ccc(F)cc1)OCc1ccc(F)cc1)[C@@H](COCc1ccc(F)cc1)OCc1ccc(F)cc1` [Compound 52, 1,2,5,6-tetra-O-(4-fluorobenzyl)-D-mannitol] is 4.8-fold higher in Ki: 0.33 µM for the first, 1.6 µM for the second.

same assay, conditions: Table 1, benzylated D-mannitol derivatives; pH 4.7, 30° C., substrate 10 μM, protease 18.3 nM

`O[C@@H]([C@H](O)[C@@H](COCc1ccccc1)OCc1cccc(F)c1)[C@@H](COCc1ccccc1)OCc1cccc(F)c1` [Compound 20, 1,6-di-O-benzyl-2,5-di-O-(3-fluorobenzyl)-D-mannitol] and `O[C@@H]([C@H](O)[C@@H](COCc1cccc(F)c1)OCc1ccccc1)[C@@H](COCc1cccc(F)c1)OCc1ccccc1` [Compound 53, 1,6-di-O-(3-fluorobenzyl)-2,5-di-O-(benzyl)-D-mannitol] are within 1.5-fold of each other in Ki: 1.8 µM for the first, 1.5 µM for the second.

Going from `O[C@@H]([C@H](O)[C@@H](COCc1ccc(F)cc1F)OCc1ccccc1)[C@@H](COCc1ccc(F)cc1F)OCc1ccccc1` [Compound 33, 1,6-di-O-(2,4-fluorobenzyl)-2,5-di-O-benzyl-D-mannitol] to `O[C@@H]([C@H](O)[C@@H](COCc1ccccc1)OCc1ccc(F)cc1F)[C@@H](COCc1ccccc1)OCc1ccc(F)cc1F` [Compound 23, 1,6-di-O-benzyl-2,5-di-O-(2,4-difluorobenzyl)-D-mannitol], the Ki falls from 4.2 ± 0.5 µM to 2.6 ± 0.5 µM (1.6-fold). The second binds more tightly here.

Going from `Cc1ccc(CO[C@H](COCc2ccccc2)[C@@H](O)[C@H](O)[C@@H](COCc2ccccc2)OCc2ccc(C)cc2)cc1` [Compound 24, 1,6-di-O-benzyl-2,5-di-O-(4-methylbenzyl)-D-mannitol] to `O[C@@H]([C@H](O)[C@@H](COCc1ccccc1)OCc1ccc(F)cc1)[C@@H](COCc1ccccc1)OCc1ccc(F)cc1` [Compound 16, 1,6-di-O-benzyl-2,5-di-O-(4-fluorobenzyl)-D-mannitol], the Ki falls from 3.7 µM to 0.7 µM (5.3-fold). The second binds more tightly here.

Compared with `O[C@@H]([C@H](O)[C@@H](COCc1ccccc1)OCc1ccc(OCc2ccccc2)cc1)[C@@H](COCc1ccccc1)OCc1ccc(OCc2ccccc2)cc1` [Compound 6, 1,6-di-O-benzyl-2,5-di-O-(4-benzyloxybenzyl)-D-mannitol], `O[C@@H]([C@H](O)[C@@H](COCc1ccc(OCc2ccccc2)cc1)OCc1ccc(F)cc1)[C@@H](COCc1ccc(OCc2ccccc2)cc1)OCc1ccc(F)cc1` [Compound 58, 1,6-di-O-(4-benzyloxybenzyl)-2,5-di-O-(4-fluorobenzyl)-D-mannitol] is higher in Ki: less than 1 µM for the first, 5 µM for the second.

Compared with `N#Cc1ccc(COC[C@@H](OCc2ccccc2)[C@@H](O)[C@H](O)[C@@H](COCc2ccc(C#N)cc2)OCc2ccccc2)cc1` [Compound 28, 1,6-di-O-(4-cyanobenzyl)-2,5-di-O-benzyl-D-mannitol], `OCc1ccc(COC[C@@H](OCc2ccccc2)[C@@H](O)[C@H](O)[C@@H](COCc2ccc(CO)cc2)OCc2ccccc2)cc1` [Compound 48, 1,6-di-(4-hydroxymethylbenzyl)-2,5-dibenzyl-D-mannitol] is 3.6-fold lower in Ki: 4.3 µM for the first, 1.2 µM for the second.

`Oc1ccc(CO[C@H](COCc2ccccc2F)[C@@H](O)[C@H](O)[C@@H](COCc2ccccc2F)OCc2ccc(O)cc2)cc1` [Compound 5, 1,6-di-(2-fluorobenzyl)-2,5-di-(4-hydroxybenzyl)-D-mannitol] and `Cc1ccc(CO[C@H](COCc2ccccc2F)[C@@H](O)[C@H](O)[C@@H](COCc2ccccc2F)OCc2ccc(C)cc2)cc1` [Compound 56, 1,6-di-O-(2-fluorobenzyl)-2,5-di-O-(4-methylbenzyl)-D-mannitol] are within 1.5-fold of each other in Ki: 2.7 µM for the first, 3.5 µM for the second.

First: Cc1ccccc1CO[C@H](COCc1ccccc1F)[C@@H](O)[C@H](O)[C@@H](COCc1ccccc1F)OCc1ccccc1C [Compound 38, 1,6-di-O-(2-fluorobenzyl)-2,5-di-O-(2-methylbenzyl)-D-mannitol]
Second: O[C@@H]([C@H](O)[C@@H](COCc1ccccc1)OCc1c(F)cccc1F)[C@@H](COCc1ccccc1)OCc1c(F)cccc1F [Compound 25, 1,6-di-O-benzyl-2,5-di-O-(2,6-difluorobenzyl)-D-mannitol]
The Ki of the first is 8-fold lower: 0.8 µM for the first, 6.4 µM for the second. The first binds more tightly here.

`CC(C)COC(=O)c1ccc(COC[C@@H](OCc2ccccc2)[C@@H](O)[C@H](O)[C@@H](COCc2ccc(C(=O)OCC(C)C)cc2)OCc2ccccc2)cc1` [Compound 30, 1,6-di-O-(4-carboisobutoxybenzyl)-2,5-di-O-benzyl D-mannitol] and `NC(=O)c1ccc(CO[C@H](COCc2ccccc2)[C@@H](O)[C@H](O)[C@@H](COCc2ccccc2)OCc2ccc(C(N)=O)cc2)cc1` [Compound 44, 1,6-di-O-benzyl-2,5-di-O-(4-carboxamidobenzyl)-D-mannitol] cannot be ordered by Ki: greater than 3 µM for the first, 20 µM for the second.

Compared with `Nc1ccc(CO[C@H](COCc2ccccc2)[C@@H](O)[C@H](O)[C@@H](COCc2ccccc2)OCc2ccccc2)cc1` [Compound 9, 1,2,6-tri-O-benzyl-5-O-(4-aminobenzyl)-D-mannitol], `O=[N+]([O-])c1ccc(CO[C@H](COCc2ccccc2)[C@@H](O)[C@H](O)[C@@H](COCc2ccccc2)OCc2ccccc2)cc1` [Compound 61] is 7-fold higher in Ki: 3.3 µM for the first, 23 µM for the second.

Going from `N#Cc1ccc(COC[C@@H](OCc2ccc(C#N)cc2)[C@@H](O)[C@H](O)[C@@H](COCc2ccc(C#N)cc2)OCc2ccc(C#N)cc2)cc1` [Compound 12, 1,2,5,6-tetra-O-(4-cyanobenzyl)-D-mannitol] to `O[C@@H]([C@H](O)[C@@H](COCc1ccccc1F)OCc1ccc(F)cc1)[C@@H](COCc1ccccc1)OCc1ccc(F)cc1` [Compound 63, 1-O-benzyl-6-O-(2-fluorobenzyl)-2,5-di-O-(4-fluorobenzyl)-D-mannitol], the Ki falls from 3.1 µM to 0.89 µM (3.5-fold).

same assay, conditions: Table 2, tetra-substituted D-mannitol derivatives; pH 4.7, 30° C., substrate 10 μM, protease 18.3 nM

Compared with `O[C@H]([C@@H](O)[C@H](COCc1cccs1)OCc1ccccc1)[C@H](COCc1cccs1)OCc1ccccc1` (stereo in doubt) [Compound 92, 1,6-di-O-(2-thienylmethyl)-2,5-di-O-benzyl-L-mannitol], `O[C@@H]([C@H](O)[C@@H](COCc1cccs1)OCc1ccc(F)cc1)[C@@H](COCc1cccs1)OCc1ccc(F)cc1` [Compound 93, 1,6-di-O-(2-thienylmethyl)-2,5-di-O-(4-fluorophenylmethyl)-D-mannitol] is 2-fold lower in Ki: 0.8 µM for the first, 0.4 µM for the second. The second binds more tightly here.

`C=CCO[C@H](COCc1ccccc1)[C@@H](O)[C@H](O)[C@@H](COCc1ccccc1)OCC=C` [Compound 82, 1,6-di-O-benzyl-2,5-di-O-allyl-D-mannitol] and `C=CCOC[C@@H](OCc1ccccc1)[C@@H](O)[C@H](O)[C@@H](COCC=C)OCc1ccccc1` [Compound 90, 1,6-di-O-allyl-2,5-di-O-benzyl-D-mannitol] are within 1.5-fold of each other in Ki: 11 µM for the first, 12 µM for the second.

Compared with `O[C@@H]([C@H](O)[C@@H](COCC1CC1)OCc1ccccc1)[C@@H](COCC1CC1)OCc1ccccc1` [Compound 89, 1,6-di-O-cyclopropylmethyl-2,5-di-O-dibenzyl-D-mannitol], `O[C@@H]([C@H](O)[C@@H](COCc1ccccc1)OCc1ccncc1)[C@@H](COCc1ccccc1)OCc1ccncc1` [Compound 86, 1,6-di-O-benzyl-2,5-di-O-(4-pyridylmethyl)-D-mannitol] is higher in Ki: 16 µM for the first, greater than 50 µM for the second.

Going from `C=CCOC[C@@H](OCC=C)[C@@H](O)[C@H](O)[C@@H](COCC=C)OCC=C` [Compound 78, 1,2,5,6-tetra-O-allyl-D-mannitol] to `O[C@@H]([C@H](O)[C@@H](COCC1CC1)OCC1CC1)[C@@H](COCC1CC1)OCC1CC1` [Compound 79, 1,2,5,6-tetra-O-cyclopropylmethyl-D-mannitol], the Ki falls from 190 µM to 21 µM (9-fold).

same assay, conditions: Table 3, di- and tri-substituted D-mannitol derivatives; pH 4.7, 30° C., substrate 10 μM, protease 18.3 nM

`CSC(=S)O[C@H](COCc1ccccc1)[C@@H](O)[C@H](O)[C@@H](COCc1ccccc1)OC(=S)SC` [Compound 101, 1,6-di-O-benzyl-2,5-di-O-(methylthiothioxo)-D-mannitol] and `CSC(=S)O[C@H](COCc1ccccc1)[C@@H](O)[C@H](O)[C@@H](COCc1ccccc1)OCc1ccc(F)cc1` [Compound 106, 1,6-di-O-benzyl-2-O-(4-fluorobenzyl)-5-O-(methylthiothioxo)-D-mannitol] cannot be ordered by Ki: greater than 5 µM for the first, greater than 5 µM for the second.
